Data published in patent US20010029636A1, “Hair bleaching and colouring compositions” (priority 1999, published 2001).

Assay: Cuticle abrasion method after bleaching of hair switches
Settings: solution 2 versus solution 1
Description: The bleaching solutions 1 and 2 were each divided into three parts A, B and C. A was adjusted to pH 9.7, B to pH 10.1 and C to pH 10.5. Each solution was adjusted to the required pH with ammonium hydroxide (ex sigma, 28.1% active). The six solutions were each dosed (1.6 ml/g hair) onto a separate Spanish hair switch (8 g, 8″, ex Hugo Royer Hair Suppliers) in a disposable petri dish using an automatic pipette. Each switch was then agitated for 90 sec using a spoon ended plastic spatula. […] Each switch was then rinsed and left to dry naturally. Step 3: Cuticle Abrasion Method This method provides a measure of the extent of hair damage following the bleaching step. […] Rinse and repeat. The base wash used is 12% SLES, 2% CAPB in water. Dry them overnight. […] Record the initial weight of the hair. Add 200 ml of distilled water to the blender, making sure that the hair is covered with water. […] Transfer the liquid to a fresh tube. Wash the blender and add this, to the tube, as well. Pour the supernatant in 4×50 ml centrifuge tubes and centrifuge at 4300 rpm for 10 mins, 22° C. Pour the pellet on the filters, wash the tube and add this as well. Transfer the supernatant to centrifuge tubes and centrifuge at 4300 rpm for 10 min. Transfer the pellet to a beaker, wash the tube 2-3 times and top with water until 50 ml. Freeze them until solid. Freeze dry them for 24 hours in Modulyo freeze drier. Once dry, weigh amount of cuticle recovered. Final measure is calculated as follows: […] This measure provides the % weight of cuticle abraded from the hair fibres which reflects the state of damage of the hair tested. Thus the greater amount of cuticle recovered the more damaged the tested hair.

For `CC(C)CCC[C@@H](C)[C@H]1CC[C@H]2[C@@H]3CC=C4C[C@@H](O)CC[C@]4(C)[C@H]3CC[C@]12C` [cholesterol], the “% reduction in damage of hair when cholesterol present” value (shortened to “% reduction in damage of hair”) (pH 9.7) was 3.95%, the “% reduction in damage of hair” value (pH 10.1) was 12.211% and the “% reduction in damage of hair” value (pH 10.5) was 30.902%.
